# In patent US20090221522A1, “METHODS TO CORRECT GENE SET EXPRESSION PROFILES TO DRUG SENSITIVITY” (The Johns Hopkins University, priority 2008, published 2009):
# Assays:
# [1] = system: direct-patient pancreatic cancer xenografts; experiment: Xenograft treatment, relative tumor growth inhibition (TGI); format: in vivo, mice
# Description: Four- to six-week-old female athymic (nu/nu) mice were purchased from Harlan (Harlan Laboratories, Washington, D.C.). The research protocol was approved by the Johns Hopkins University Animal Use and Care Committee and animals were maintained in accordance to guidelines of the American Association of Laboratory Animal Care. Xenografts obtained from F1 mice were excised and cut into small ˜3×3×3 mm fragments and then implanted subcutaneously in a group of five to six mice for each patient, with two small fragments in each mouse (F2) as described above for the original carcinoma. Half of the rest of the carcinoma was cryopreserved in liquid nitrogen and the other half is processed for biological studies. When the carcinoma reached a size of 1,500 mm^3, they were excised, cut into ˜3×3×3 mm fragments, and transplanted to the final cohort of mice to be treated with the drugs (F3 and successive passages). Further details of the establishment of the direct-patient pancreatic cancer xenografts are described in Rubio-Viqueira B, Jimeno A, Cusatis G, et al. An In vivo Platform for Translational Drug Development in Pancreatic Cancer. Clin Cancer Res 2006 12:4652-61.
# Gemcitabine (Eli Lilly, Indianapolis, Ind.) was dissolved in saline. In some embodiments, docetaxel (Sanofi-Aventis, Bridgewater, N.J.) was dissolved in 50% ethanol and 50% DMSO. In other embodiments, docetaxel (Sanofi-Aventis, Bridgewater, N.J.) was dissolved in ethanol/polysorbate 80 as a stock solution and diluted 10-fold in 5% glucose for in vivo studies. Temsirolimus (Wyeth Research, Colleville, Pa.) was dissolved in 10% ethanol, 10% pluronic, and 80% PBS. All drugs were freshly prepared and used at an injection volume of 0.2 mL/20 g body weight. Drug doses and treatment schedules were obtained from published studies.
# Xenografts from this second mouse-to-mouse passage (F3) were allowed to grow to a size of ˜200 mm^3, at which time five-to-six mice were randomly assigned to control and treatment groups. […] For docetaxel treatment group, mice were treated with 20 mg/kg once a week via intraperitoneal injection. For temsirolimus treatment group, mice were treated with 20 mg/kg/day via intraperitoneal injection. Mice were treated for 21-28 days, monitored daily for signs of toxicity, and were weighed thrice a week. Tumor size was evaluated thrice a week by caliper measurements using the following formula: tumor volume=[length×width^2]/2 as reported by van de Vijver M J, He Y D, van't Veer L J, et al. A Gene-Expression Signature as a Predictor of Survival in Breast Cancer. N Engl J Med 2002 347:1999-2009.
# (§1) Relative tumor growth index (TGI) was calculated as TGI=(Ti−T0/Ci−C0) if Ti>T0 (indicates tumor growth inhibition) and TGI=(Ti−T0) if Ti≦T0 (indicates tumor regression). T and C represent tumor size in the treated and control group at the last of experiment, respectively; T0 and C0 represent tumor size in the treated and control group at the start of treatment, respectively.
# [2] = system: patient-derived xenografts refractory to gemcitabine; experiment: Pre-clinical second-line study in xenografts refractory to gemcitabine (TGI); format: in vivo, mice; conditions: for TGI: treated with gemcitabine (first line)
# Protocol: FIG. 11 illustrates a pre-clinical design.
# FIG. 12 illustrates validation on the xenografts of FIG. 11 based on prediction according to the present invention. Four xenograft cases were used. […] A case is defined as a responder to the drug treatment if Tumor Growth Inhibition (TGI) is <20%. Negative TGI values indicate tumor regression.
# as §1
# Seven FDA approved anticancer agents (capecitabine, cisplatin, docetaxel, doxorubicin, etoposide, irinotecan and oxaliplatin) were used as potential second line of drugs for selection according to the present invention. The one-size-fits-all treatment was erlotinib, an FDA approved targeted therapy for advanced pancreatic cancer. See Moore M J, Goldstein D, Hamm J, et al. Erlotinib plus gemcitabine compared with gemcitabine alone in patients with advanced pancreatic cancer: a phase Ill trial of the National Cancer Institute of Canada Clinical Trials Group. J Clin Oncol 25:1960-06 2007. […] Xenograft models of these cases were randomly assigned to (i) control, (ii) erlotinib arm (one-size-fits-all second line treatment) and (iii) molecular mimicry arm (i.e., drug selection according to the present invention). For the molecular mimicry arm, the baseline gene expression profiles of these cases were connected the NCI reference panel using GS-CMAP, and one of the seven anticancer agents was assigned to the case based on comparing the GI50 among these drugs. Molecular mimicry predicted that JH033 and JH034 are sensitive to docetaxel, PANC185 is sensitive to irinotecan and PANC219 is sensitive to doxorubicin. These cases were treated with the molecular mimicry choice of drugs and tumor volumes were measured. At the end of the experiment, xenografts treated with molecular mimicry choice of drugs had higher tumor growth inhibition than their litter mates treated with erlotinib (FIGS. 12 and 13).
# [3] = system: Resectable Pancreatic Adenocarcinoma; experiment: Disease free survival after adjuvant gemcitabine; format: in vivo, human
# Protocol: Statistical analysis was performed using software SPSS version 16 (SPSS Inc., Chicago, Ill.). P-values <0.05 were regarded as significant. Disease free survival (DFS) was analyzed using the Kaplan-Meier method and compared with the log-rank test.
# The connectivity concept of the present invention can be used with actual patient profiles. Patients were recruited under the Phase II Study of an Individualized Drug Treatment Selection Process Based on a Tumor Xenograft Model for Patients with Resectable Pancreatic Adenocarcinoma (JHOC-J0507 JHOC-05041402, NCT00276744). All patients signed the informed consent of this trial. Twenty-four of the patients with complete follow-up data were included in this study. Direct-patient xenograft cases from the PancXenoBank, Rubio-Viqueira B, Jimeno A, Cusatis G, et al: An In vivo Platform for Translational Drug Development in Pancreatic Cancer. Clin Cancer Res 12:4652-4661, 2006, were also used.
# The mean age of diagnosis for these patients is 65 years (range from 41 to 81 years). All patients received gemcitabine as adjuvant chemotherapy. Herrmann R, Bodoky G, Ruhstaller T, et al: Gemcitabine Plus Capecitabine Compared With Gemcitabine Alone in Advanced Pancreatic Cancer: A Randomized, Multicenter, Phase III Trial of the Swiss Group for Clinical Cancer Research and the Central European Cooperative Oncology Group. […] Cancer 85:1261-1268, 1999. […] See Oettle H, Post S, Neuhaus P, et al: Adjuvant Chemotherapy with Gemcitabine vs. Observation in Patients Undergoing Curative-Intent Resection of Pancreatic Cancer: A Randomized Controlled Trial. JAMA 297:267-277, 2007. The median DFS for these patients was 291 days.
# Using the methods of the present invention, where a patient is connected to a sensitive cell line, the patient will be predicted as sensitive to gemcitabine and vice versa. This approach achieved an overall prediction accuracy of 71% on these retrospective patient samples. […] The positive predicted value and negative predicted value are 73% and 69%, respectively. […]
smiles,measurement,setting,value
Nc1ccn([C@@H]2O[C@H](CO)[C@@H](O)C2(F)F)c(=O)n1 [gemcitabine],average TGI,[1]; five xenografts connected to gemcitabine sensitive NCI-60 cell lines,−24%
same,"responders (TGI less than −30%, RECIST criterion)","[1]; of thirty xenografts, gemcitabine, PANC194, PANC266, PANC294, PANC140, PANC253",five responders
same,TGI,"[1]; xenograft PANC194, gemcitabine",−63%
same,median TGI,"[2]; four xenograft cases (PANC185, PANC219, JH033, JH034)",36.5%
same,TGI,[2]; xenograft JH033,more than 20%
same,TGI,[2]; xenograft JH034,more than 20%
same,TGI,[2]; xenograft PANC185,more than 20%
same,TGI,[2]; xenograft PANC219,more than 20%
same,median DFS,"[3]; all 24 patients, gemcitabine as adjuvant chemotherapy",291 days
same,median DFS,[3]; predicted gemcitabine resistant group,162 days
same,median DFS,[3]; predicted gemcitabine sensitive group,491 days
